From PubChem BioAssay AID182 (DTP/NCI, 2004)
Values joined by “and” are separate entries in the source; they are usually repeats but may differ in a detail not shown here. Equal entries are not always repeated. Inconclusive results and toxic doses are left out.

System: BDF1 mice, P388/ADR leukemia ip, median survival T/C
Test: NCI In Vivo Anticancer Drug Screen. Data for tumor model P388 Leukemia resistant to Adriamycin; NSC 123127, Developed at Scr 06 and 41 (intraperitoneal) in B6D2F1 (BDF1) mice
Conditions: endpoint: median survival time, higher = longer survival
Description: The antitumor activity of compounds was measured in mice bearing transplantable tumors. Survival or tumor size were measured and the results are expressed as the measurement made in the treated group (T) divided by the measurement made in the vehicle treated control group (C). The tumor model used in this assay is P388 Leukemia resistant to Adriamycin; NSC 123127, Developed at Scr 06 and 41 (intraperitoneal) in B6D2F1 (BDF1) mice

[1] = dose: 1.73 mg/kg/injection, schedule: Q04DX003 (ip), vehicle: water
[2] = dose: 2.88 mg/kg/injection, schedule: Q04DX003 (ip), vehicle: water
[3] = dose: 4.8 mg/kg/injection, schedule: Q04DX003 (ip), vehicle: water
[4] = dose: 0.72 mg/kg/injection, schedule: Q04DX003 (ip), vehicle: saline
[5] = dose: 173.0 micrograms/kg/injection, schedule: Q01DX009 (ip), vehicle: saline
[6] = dose: 288.0 micrograms/kg/injection, schedule: Q01DX009 (ip), vehicle: saline
[7] = dose: 480.0 micrograms/kg/injection, schedule: Q01DX009 (ip), vehicle: saline

CC(=O)C1(O)Cc2c(O)c3c(c(O)c2C(OC2CC(N)C(O)C(C)O2)C1)C(=O)c1ccccc1C3=O (stereo not drawn)
T/C (dose: 324.0 micrograms/kg/injection, schedule: Q04DX003 (ip), vehicle: water): 119 % of control
T/C (dose: 540.0 micrograms/kg/injection, schedule: Q04DX003 (ip), vehicle: water): 122 % of control
T/C (dose: 900.0 micrograms/kg/injection, schedule: Q04DX003 (ip), vehicle: water): 122 % of control
T/C (dose: 1500.0 micrograms/kg/injection, schedule: Q04DX003 (ip), vehicle: water): 98 % of control

O=C1N[C@@H]([C@H]2CC[C@H](Cl)CN2)C(=O)N[C@H]1[C@H]1CC[C@H](Cl)CN1
T/C (dose: 1.44 mg/kg/injection, schedule: Q04DX003 (ip), vehicle: water): 158 % of control
T/C (dose: 2.4 mg/kg/injection, schedule: Q04DX003 (ip), vehicle: water): 213 % of control
T/C (dose: 4.0 mg/kg/injection, schedule: Q04DX003 (ip), vehicle: water): 221 % of control
T/C (dose: 6.67 mg/kg/injection, schedule: Q04DX003 (ip), vehicle: water): 122 % of control

CO[C@H](C(=O)[C@@H](O)[C@@H](C)O)[C@@H]1Cc2cc3cc(OC4CC(OC5CC(O)C(O)C(C)O5)C(O)C(C)O4)c(C)c(O)c3c(O)c2C(=O)[C@H]1OC1CC(OC2CC(OC3CC(C)(O)C(O)C(C)O3)C(O)C(C)O2)C(O)C(C)O1 (stereo partly drawn)
T/C (dose: 0.32 mg/kg/injection, schedule: Q01DX005 (ip), vehicle: water): 91 % of control
T/C (dose: 0.54 mg/kg/injection, schedule: Q01DX005 (ip), vehicle: water): 95 % of control
T/C (dose: 0.65 mg/kg/injection, schedule: Q04DX003 (ip), vehicle: water): 89 % of control

Cc1c2ccncc2c(C)c2c1[nH]c1ccccc12
T/C (dose: 13.0 mg/kg/injection, schedule: Q04DX003 (ip), vehicle: water): 112 % of control
T/C (dose: 21.6 mg/kg/injection, schedule: Q04DX003 (ip), vehicle: water): 104 % of control and 109 % of control
T/C (dose: 36.0 mg/kg/injection, schedule: Q04DX003 (ip), vehicle: water): 110 % of control and 117 % of control

CC[C@@]1(O)C[C@H](OC2CC(N(C)C)C(OC3CC(O)C(OC4CCC(=O)C(C)O4)C(C)O3)C(C)O2)c2c(cc3c(c2O)C(=O)c2c(O)ccc(O)c2C3=O)[C@H]1C(=O)OC (stereo partly drawn)
T/C (dose: 0.65 mg/kg/injection, schedule: Q01DX009 (ip), vehicle: water): 110 % of control
T/C (dose: 1.08 mg/kg/injection, schedule: Q01DX009 (ip), vehicle: water): 120 % of control
T/C [1]: 115 % of control and 124 % of control
T/C (dose: 2.5 mg/kg/injection, schedule: Q04DX003 (ip), vehicle: water): 116 % of control
T/C [2]: 119 % of control
T/C (dose: 3.0 mg/kg/injection, schedule: Q01DX009 (ip), vehicle: water): 90 % of control
T/C (dose: 4.8 mg/kg/injection, schedule: Q04DX003 (ip), vehicle: other): 119 % of control
T/C [3]: 150 % of control
T/C (dose: 5.0 mg/kg/injection, schedule: Q04DX003 (ip), vehicle: water): 110 % of control

CC(=O)c1cccc(NC2C(N)C(NC(=O)N(C)C)(C(C)O)C(C)(O)C2(O)COC(=O)c2c(C)cccc2O)c1 (stereo not drawn)
T/C (dose: 5.18 mg/kg/injection, schedule: Q04DX003 (ip), vehicle: alkali diluted with saline): 90 % of control
T/C (dose: 6.5 mg/kg/injection, schedule: Q04DX003 (ip), vehicle: alkali diluted with saline): 114 % of control
T/C (dose: 8.64 mg/kg/injection, schedule: Q04DX003 (ip), vehicle: alkali diluted with saline): 89 % of control
T/C (dose: 14.4 mg/kg/injection, schedule: Q04DX003 (ip), vehicle: alkali diluted with saline): 87 % of control

CC[C@H]1CN2CCc3cc(OC)c(OC)cc3[C@@H]2C[C@@H]1C[C@@H]1c2cc(OC)c(OC)cc2CCN1CCN(CCCl)CCCl
T/C (dose: 4.3 mg/kg/injection, schedule: Q04DX003 (ip), vehicle: saline with Tween-80): 119 % of control
T/C (dose: 7.2 mg/kg/injection, schedule: Q04DX003 (ip), vehicle: saline with Tween-80): 119 % of control

NC(CSC(c1ccccc1)(c1ccccc1)c1ccccc1)C(=O)O (stereo not drawn)
T/C (dose: 24.0 mg/kg/injection, schedule: Q01DX009 (ip), vehicle: other): 100 % of control
T/C (dose: 40.0 mg/kg/injection, schedule: Q01DX009 (ip), vehicle: other): 106 % of control

COc1ccc(CC2C(=O)NC(C)C(=O)N(C)C3Cc4ccc(cc4)Oc4cc(ccc4O)CC(C(=O)NC(C)C(=O)NC(C)C(=O)N2C)N(C)C3=O)cc1 (stereo not drawn)
T/C (dose: 4.32 mg/kg/injection, schedule: Q04DX003 (ip), vehicle: other): 109 % of control
T/C (dose: 7.2 mg/kg/injection, schedule: Q04DX003 (ip), vehicle: other): 94 % of control
T/C (dose: 12.0 mg/kg/injection, schedule: Q04DX003 (ip), vehicle: other): 88 % of control

CCN(CC)CCNc1ccc(CO)c2sc3ccccc3c(=O)c12
T/C (dose: 17.3 mg/kg/injection, schedule: Q01DX009 (ip), vehicle: water): 93 % of control
T/C (dose: 25.2 mg/kg/injection, schedule: Q01DX009 (ip), vehicle: water): 108 % of control
T/C (dose: 28.8 mg/kg/injection, schedule: Q01DX009 (ip), vehicle: water): 100 % of control
T/C (dose: 42.0 mg/kg/injection, schedule: Q01DX009 (ip), vehicle: water): 117 % of control
T/C (dose: 48.0 mg/kg/injection, schedule: Q01DX009 (ip), vehicle: water): 104 % of control
T/C (dose: 70.0 mg/kg/injection, schedule: Q01DX009 (ip), vehicle: water): 104 % of control
T/C (dose: 117.0 mg/kg/injection, schedule: Q01DX009 (ip), vehicle: water): 88 % of control

S=c1nc[nH]c2nc[nH]c12
T/C (dose: 43.2 mg/kg/injection, schedule: Q01DX009 (ip), vehicle: alkali diluted with saline): 100 % of control
T/C (dose: 72.0 mg/kg/injection, schedule: Q01DX009 (ip), vehicle: alkali diluted with saline): 105 % of control

N[C@H](C(=O)O)[C@@H]1CC(Cl)=NO1
T/C (dose: 36.0 mg/kg/injection, schedule: Q04DX003 (ip), vehicle: saline): 122 % of control

CSCS(=O)C[C@H](CO)NC(=O)/C=C/c1c(C)[nH]c(=O)[nH]c1=O (stereo partly drawn)
T/C [4]: 88 % of control
T/C (dose: 0.86 mg/kg/injection, schedule: Q04DX003 (ip), vehicle: saline): 100 % of control
T/C (dose: 1.2 mg/kg/injection, schedule: Q04DX003 (ip), vehicle: saline): 86 % of control
T/C (dose: 1.44 mg/kg/injection, schedule: Q04DX003 (ip), vehicle: saline): 114 % of control
T/C (dose: 2.0 mg/kg/injection, schedule: Q04DX003 (ip), vehicle: saline): 86 % of control
T/C (dose: 2.4 mg/kg/injection, schedule: Q04DX003 (ip), vehicle: saline): 119 % of control
T/C [5]: 99 % of control
T/C [6]: 99 % of control
T/C [7]: 95 % of control

CC1CC(C)(O)CC(C(O)CC2CC(=O)NC(=O)C2)C1=O (stereo not drawn)
T/C [4]: 120 % of control
T/C (dose: 0.78 mg/kg/injection, schedule: Q04DX003 (ip), vehicle: saline): 124 % of control
T/C (dose: 2.16 mg/kg/injection, schedule: Q04DX003 (ip), vehicle: saline): 91 % of control
T/C [5]: 103 % of control
T/C [6]: 112 % of control
T/C [7]: 92 % of control

CCC1(O)CC(OC2CC(N(C)C)C(OC3CC(O)C(OC4CCC(=O)C(C)O4)C(C)O3)C(C)O2)c2c(cc3c(c2O)C(=O)c2c(O)ccc(O)c2C3=O)C1C(=O)OC (stereo not drawn)
T/C [1]: 105 % of control
T/C [2]: 107 % of control
T/C [3]: 119 % of control

O=C(Nc1ccc(C2=NCCCN2)cc1)c1ccc(C(=O)Nc2ccc(C3=NCCCN3)cc2)cc1
T/C (dose: 10.8 mg/kg/injection, schedule: Q04DX003 (ip), vehicle: other): 118 % of control
T/C (dose: 30.0 mg/kg/injection, schedule: Q04DX003 (ip), vehicle: other): 94 % of control

COc1cccc2c1C(=O)c1c(O)c3c(c(O)c1C2=O)C[C@@](O)(C(C)=O)C[C@@H]3OC1CC(N(C)C)C(O)C(C)O1 (stereo partly drawn)
T/C (dose: 3.46 mg/kg/injection, schedule: Q04DX003 (ip), vehicle: water): 114 % of control
T/C (dose: 5.76 mg/kg/injection, schedule: Q04DX003 (ip), vehicle: water): 121 % of control
T/C (dose: 9.6 mg/kg/injection, schedule: Q04DX003 (ip), vehicle: water): 113 % of control
T/C (dose: 16.0 mg/kg/injection, schedule: Q04DX003 (ip), vehicle: water): 104 % of control
